Results reported in patent US20250019387A1 (Frontier Medicines Corporation, priority 0001, published 2025).

Molecular target: KRAS G12C and cRAF (Ras-binding domain) interaction (Homo sapiens (Human), UniProt P01116, C118S/C51S/C80L/G12C)
Assay: Inhibition of KRAS G12C and cRAF binding (AlphaScreen)
Details: GMPPNP-loaded KRAS G12C, 19-20 hours incubation with compound; read-out: IC50 (Inhibition of KRAS G12C and cRAF Binding)
Outline: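 IC50 values come from 4-parameter nonlinear regression of AlphaScreen signal (680 nm excitation, 570 nm emission). Compound plates sat 19-20 h at room temperature before RBD and donor/acceptor beads were added in Hepes pH 7.4 buffer with 150 mM NaCl, 5 mM MgCl2, 2% DMSO for 60-90 min; biotin-AviTag-GST replaced RBD to flag assay-technology interferers.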

KRAS G12C and cRAF (Ras-binding domain) interaction, sequence (P01116 other isoform, or with tags, fused parts or gaps G12C/C51S/C80L/C118S): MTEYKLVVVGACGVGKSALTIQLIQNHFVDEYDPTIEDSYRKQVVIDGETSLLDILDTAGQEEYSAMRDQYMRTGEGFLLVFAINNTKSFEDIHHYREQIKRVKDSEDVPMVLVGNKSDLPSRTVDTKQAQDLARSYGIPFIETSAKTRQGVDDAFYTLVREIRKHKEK

For `Cc1coc(/C=C/C(=O)N2CC[C@@H](N(C)c3nc(OCC45CCCN4CCC5)nc4c(F)c(-c5cccc6cccc(Cl)c56)ncc34)C2)n1` [Example 143, (R,E)-1-(3-((7-(8-chloronaphthalen-1-yl)-8-fluoro-2-((tetrahydro-1H-pyrrolizin-7a(5H)-yl)methoxy)pyrido[4,3-d]pyrimidin-4-yl)(methyl)amino)pyrrolidin-1-yl)-3-(4-methyloxazol-2-yl)prop-2-en-1-one], which IC50 is on record?
The IC50 was 100 to 500 nM.

Which IC50 does the source give for `CN1CCC1C#CC(=O)N1CC[C@@H](N(C)c2nc(OC[C@@]34CCCN3C[C@H](F)C4)nc3c(F)c(-c4cccc5cccc(Cl)c45)ncc23)C1` (stereo partly drawn) [Example 186, 1-((R)-3-((7-(8-chloronaphthalen-1-yl)-8-fluoro-2-(((2R,7aS)-2-fluorohexahydro-1H-pyrrolizin-7a-yl)methoxy)pyrido[4,3-d]pyrimidin-4-yl)(methyl)amino)pyrrolidin-1-yl)-3-(1-methylazetidin-2-yl)prop-2-yn-1-one] here?
The IC50 was less than 10 nM.

Which IC50 does the source give for `C=CC(=O)N1CC[C@@H](N(CCC#N)c2nc(OC[C@@]34CCCN3C[C@H](F)C4)nc3c(F)c(-c4cccc5cccc(Cl)c45)ncc23)C1` [Example 264, 3-(((R)-1-acryloylpyrrolidin-3-yl)(7-(8-chloronaphthalen-1-yl)-8-fluoro-2-(((2R,7aS)-2-fluorohexahydro-1H-pyrrolizin-7a-yl)methoxy)pyrido[4,3-d]pyrimidin-4-yl)amino)propanenitrile] here?
Its IC50 is 100 to 500 nM.

With `CN(CC1CN(C(=O)/C=C/[C@H]2CCN2C)C1)c1nc(OC[C@@]23CCCN2C[C@H](F)C3)nc2c(F)c(-c3cccc4cccc(Cl)c34)ncc12` [Example 219, (E)-1-(3-(((7-(8-chloronaphthalen-1-yl)-8-fluoro-2-(((2R,7aS)-2-fluorotetrahydro-1H-pyrrolizin-7a(5H)-yl)methoxy)pyrido[4,3-d]pyrimidin-4-yl)(methyl)amino)methyl)azetidin-1-yl)-3-((R)-1-methylazetidin-2-yl)prop-2-en-1-one] as the compound, how does the IC50 read?
The IC50 was 10 to 100 nM.

Which IC50 does the source give for `COC(=O)/C=C/C(=O)N1C[C@H](N(C)c2nc(OC[C@@H]3CCCN3C)nc3c2CCN(c2cccc4cccc(Cl)c24)C3)C[C@H]1C` [Example 17, methyl(E)-4-((2R,4R)-4-((7-(8-chloronaphthalen-1-yl)-2-(((S)-1-methylpyrrolidin-2-yl)methoxy)-5,6,7,8-tetrahydropyrido[3,4-d]pyrimidin-4-yl)(methyl)amino)-2-methylpyrrolidin-1-yl)-4-oxobut-2-enoate] here?
Its IC50 is 10 to 100 nM.

How did the IC50 turn out when `CN(c1nc(OCC23CCCN2CCC3)nc2c1CCN(c1cccc3cccc(Cl)c13)C2)[C@@H]1CCN(C(=O)/C=C/c2nc(C3(C)CC3)no2)C1` [Example 128, (R,E)-1-(3-((7-(8-chloronaphthalen-1-yl)-2-((hexahydro-1H-pyrrolizin-7a-yl)methoxy)-5,6,7,8-tetrahydropyrido[3,4-d]pyrimidin-4-yl)(methyl)amino)pyrrolidin-1-yl)-3-(3-(1-methylcyclopropyl)-1,2,4-oxadiazol-5-yl)prop-2-en-1-one] was run?
The IC50 was 100 to 500 nM.

How did the IC50 turn out when `CN(CC1CN(C(=O)/C=C/c2nc(C(C)(C)O)no2)C1)c1nc(OCC23CCCN2CCC3)nc2c(F)c(-c3cccc4ccc(F)c(Cl)c34)ncc12` [Example 229, (E)-1-(3-(((7-(8-chloro-7-fluoronaphthalen-1-yl)-8-fluoro-2-((tetrahydro-1H-pyrrolizin-7a(5H)-yl)methoxy)pyrido[4,3-d]pyrimidin-4-yl)(methyl)amino)methyl)azetidin-1-yl)-3-(3-(2-hydroxypropan-2-yl)-1,2,4-oxadiazol-5-yl)prop-2-en-1-one] was run?
Its IC50 is less than 10 nM.

How did the IC50 turn out when `CC(C)c1noc(/C=C/C(=O)N2CC[C@@H](N(C)c3nc(OCC45CCCN4CCC5)nc4c(F)c(-c5cccc6ccc(F)c(Cl)c56)ncc34)C2)n1` [Example 85, (R,E)-1-(3-((7-(8-chloro-7-fluoronaphthalen-1-yl)-8-fluoro-2-((hexahydro-1H-pyrrolizin-7a-yl)methoxy)pyrido[4,3-d]pyrimidin-4-yl)(methyl)amino)pyrrolidin-1-yl)-3-(3-isopropyl-1,2,4-oxadiazol-5-yl)prop-2-en-1-one] was run?
The IC50 was less than 10 nM.

How did the IC50 turn out when `C/C=C/S(=O)(=O)CCN(C)c1nc(OCC23CCCN2CCC3)nc2c1CCN(c1cccc3cccc(Cl)c13)C2` [Example 54, (E)-7-(8-chloronaphthalen-1-yl)-2-((hexahydro-1H-pyrrolizin-7a-yl)methoxy)-N-methyl-N-(2-(prop-1-en-1-ylsulfonyl)ethyl)-5,6,7,8-tetrahydropyrido[3,4-d]pyrimidin-4-amine] was run?
Its IC50 is 100 to 500 nM.

With `C#Cc1c(F)ccc2cccc(-c3ncc4c(N(C)[C@@H]5CCN(C(=O)/C=C/CN6C[C@H]7C[C@@H]6CO7)C5)nc(OC[C@@]56CCCN5C[C@H](F)C6)nc4c3F)c12` [Example 290, (E)-4-((1R,4R)-2-oxa-5-azabicyclo[2.2.1]heptan-5-yl)-1-((R)-3-((7-(8-ethynyl-7-fluoronaphthalen-1-yl)-8-fluoro-2-(((2R,7aS)-2-fluorotetrahydro-1H-pyrrolizin-7a(5H)-yl)methoxy)pyrido[4,3-d]pyrimidin-4-yl)(methyl)amino)pyrrolidin-1-yl)but-2-en-1-one] as the compound, how does the IC50 read?
Its IC50 is less than 10 nM.

`Cc1c(F)ccc2cccc(-c3ncc4c(N(C)[C@@H]5CCN(C(=O)/C=C/CN(C)C)C5)nc(OC[C@@]56CCCN5C[C@H](F)C6)nc4c3F)c12` [Example 202, (E)-4-(dimethylamino)-1-((R)-3-((8-fluoro-7-(7-fluoro-8-methylnaphthalen-1-yl)-2-(((2R,7aS)-2-fluorotetrahydro-1H-pyrrolizin-7a(5H)-yl)methoxy)pyrido[4,3-d]pyrimidin-4-yl)(methyl)amino)pyrrolidin-1-yl)but-2-en-1-one] was tested. Which IC50 did it give?
The IC50 was 10 to 100 nM.

How did the IC50 turn out when `C=CC(=O)N1CC[C@@H](N(C)c2nc(OC[C@@]34CCCN3C[C@H](F)C4)nc3c(F)c(-c4cc(O)cc5ccccc45)ncc23)C1` [Example 158, 1-((R)-3-((8-fluoro-2-(((2R,7aS)-2-fluorohexahydro-1H-pyrrolizin-7a-yl)methoxy)-7-(3-hydroxynaphthalen-1-yl)pyrido[4,3-d]pyrimidin-4-yl)(methyl)amino)pyrrolidin-1-yl)prop-2-en-1-one] was run?
Its IC50 is less than 10 nM.

`COC(=O)/C=C/C(=O)NCCN(C)c1nc(OC[C@@H]2CCCN2C)nc2c1CCN(c1cccc3ccc(F)c(Cl)c13)C2` [Example 1, methyl(S,E)-4-((2-((7-(8-chloro-7-fluoronaphthalen-1-yl)-2-((1-methylpyrrolidin-2-yl)methoxy)-5,6,7,8-tetrahydropyrido[3,4-d]pyrimidin-4-yl)(methyl)amino)ethyl)amino)-4-oxobut-2-enoate] was tested. Which IC50 did it give?
The IC50 was 10 to 100 nM.

How did the IC50 turn out when `Cc1nccc(/C=C/C(=O)N2CCC[C@@H](N(C)c3nc(OC[C@@]45CCCN4C[C@H](F)C5)nc4c(F)c(-c5cccc6cccc(Cl)c56)ncc34)C2)n1` [Example 198, (E)-1-((R)-3-((7-(8-chloronaphthalen-1-yl)-8-fluoro-2-(((2R,7aS)-2-fluorotetrahydro-1H-pyrrolizin-7a(5H)-yl)methoxy)pyrido[4,3-d]pyrimidin-4-yl)(methyl)amino)piperidin-1-yl)-3-(2-methylpyrimidin-4-yl)prop-2-en-1-one] was run?
The IC50 was greater than 500 nM.

Same assay, conditions: additional exemplary compounds; KRAS G12C and cRAF binding; read-out: RAF1 RBD IC50

With `C=CC(=O)N1C[C@@H](N(C)c2nc(OC[C@@H]3CCCN3C)nc3c(F)c(-c4cccc5cccc(Cl)c45)ncc23)C[C@@H]1CC#N` as the compound, how does the IC50 read?
The IC50 was greater than 500 nM.

With `CN(C)C/C=C/C(=O)N1CC[C@@H](N(C)c2nc(OC[C@@]34CCCN3C[C@H](F)C4)nc3c2CCN(c2cccc4ccc(F)c(Cl)c24)C3)C1` as the compound, how does the IC50 read?
The IC50 was 10 to 100 nM.

For `O=C(/C=C/CN1[C@@H]2CC[C@H]1COC2)N1CCN(c2nc(OC[C@@]34CCCN3C[C@H](F)C4)nc3c(F)c(-c4cccc5cccc(Cl)c45)ncc23)C2(CC2)C1`, which IC50 is on record?
Its IC50 is greater than 500 nM.

Which IC50 does the source give for `C/C=C/C(=O)CN(C)c1nc(OC[C@@H]2CCCN2C)nc2c1CCN(c1cccc3ccccc13)C2` here?
The IC50 was greater than 500 nM.

For `C=CC(=O)N1CC(CN(C)c2nc(OC[C@@]34CCCN3C[C@H](O)C4)nc3c(F)c(-c4cccc5cccc(Cl)c45)ncc23)C1`, which IC50 is on record?
Its IC50 is greater than 500 nM.

With `C=CC(=O)N1CC(CN(C)c2nc(OC[C@@]34CCCN3C[C@H](F)C4)nc3c2CCN(c2cccc4cccc(Cl)c24)C3)C1` as the compound, how does the IC50 read?
The IC50 was 100 to 500 nM.

`C=CC(=O)N1C[C@@H](O)[C@@H](Nc2nc(OC[C@@]34CCCN3C[C@H](F)C4)nc3c(F)c(-c4cccc5cccc(Cl)c45)ncc23)C1` was tested. Which IC50 did it give?
Its IC50 is greater than 500 nM.

With `Cc1nccc(/C=C/C(=O)N2CCN(c3nc(OC[C@@]45CCCN4C[C@H](F)C5)nc4c(F)c(-c5cccc6cccc(Cl)c56)ncc34)C3CC32)n1` (stereo partly shown) as the compound, how does the IC50 read?
Its IC50 is greater than 500 nM.

For `C=CC(=O)N1CCC(CNc2nc(OC[C@@]34CCCN3C[C@H](F)C4)nc3c(F)c(-c4cccc5cccc(Cl)c45)ncc23)C1` (stereo partly shown), which IC50 is on record?
Its IC50 is greater than 500 nM.

With `CC(C)c1noc(/C=C/C(=O)N2C[C@H]3C[C@@H]2CN3c2nc(OC[C@@]34CCCN3C[C@H](F)C4)nc3c(F)c(-c4cccc5cccc(Cl)c45)ncc23)n1` as the compound, how does the IC50 read?
Its IC50 is greater than 500 nM.

For `CC(C)c1noc(/C=C/C(=O)N2CCN(c3nc(OCC45CCCN4CCC5)nc4c3CCN(c3cccc5cccc(Cl)c35)C4)CC2)n1`, which IC50 is on record?
The IC50 was greater than 500 nM.

For `C=CC(=O)N1CC[C@@H](N(C)c2nc(OC[C@@]34CCCN3C[C@H](F)C4)nc3c2CCN(c2cccc4ccc(F)c(Cl)c24)C3)C1`, which IC50 is on record?
The IC50 was 10 to 100 nM.

For `C=CS(=O)(=O)C1CCC(N(C)c2nc(OCC34CCCN3CCC4)nc3c2CCN(c2cccc4cccc(Cl)c24)C3)C1` (stereo not shown), which IC50 is on record?
Its IC50 is 10 to 100 nM.

With `CN(c1nc(OCC23CCCN2CCC3)nc2c1CCN(c1cccc3cccc(Cl)c13)C2)[C@@H]1CCN(C(=O)/C=C/C2(C)COC2)C1` as the compound, how does the IC50 read?
Its IC50 is greater than 500 nM.

For `C=CC(=O)N1CC[C@@H](N(C)c2nc(OC[C@@]34CCCN3C[C@H](F)C4)nc3c(F)c(-c4cc(OC(F)F)cc5ccccc45)ncc23)C1`, which IC50 is on record?
The IC50 was greater than 500 nM.

How did the IC50 turn out when `C=CC(=O)N1CCCC1CNc1nc(OC[C@@]23CCCN2C[C@H](F)C3)nc2c(F)c(-c3cccc4cccc(Cl)c34)ncc12` (stereo partly shown) was run?
Its IC50 is greater than 500 nM.

With `CC(C)c1noc(/C=C/C(=O)N2CC3CC(C2)N3c2nc(OC[C@@]34CCCN3C[C@H](F)C4)nc3c(F)c(-c4cccc5cccc(Cl)c45)ncc23)n1` as the compound, how does the IC50 read?
Its IC50 is greater than 500 nM.
